These compounds were tested against MLK3 (Homo sapiens (Human), UniProt Q16584) (assay: Radiometric Filter Plate MLK3 Assay). Conditions: 200 ng (130 nM) MLK3, 1 μM inactive MKK7b, 2 μM cold ATP (Km), 33P ATP, twenty minute incubation; read-out: MK3 IC50.
Format: biochemical
Experimental: Radiometric Filter Plate MLK3 Assay
After a twenty minute incubation, the reactions were washed through filter plates and read on a scintillation counter. Results are shown in Table 4 below, in which +++ indicates ≦0.1 μM, ++ indicates >0.1 μM and ≦1 μM, and + indicates >1 μM.

Chain of MLK3 (Q16584 whole entry): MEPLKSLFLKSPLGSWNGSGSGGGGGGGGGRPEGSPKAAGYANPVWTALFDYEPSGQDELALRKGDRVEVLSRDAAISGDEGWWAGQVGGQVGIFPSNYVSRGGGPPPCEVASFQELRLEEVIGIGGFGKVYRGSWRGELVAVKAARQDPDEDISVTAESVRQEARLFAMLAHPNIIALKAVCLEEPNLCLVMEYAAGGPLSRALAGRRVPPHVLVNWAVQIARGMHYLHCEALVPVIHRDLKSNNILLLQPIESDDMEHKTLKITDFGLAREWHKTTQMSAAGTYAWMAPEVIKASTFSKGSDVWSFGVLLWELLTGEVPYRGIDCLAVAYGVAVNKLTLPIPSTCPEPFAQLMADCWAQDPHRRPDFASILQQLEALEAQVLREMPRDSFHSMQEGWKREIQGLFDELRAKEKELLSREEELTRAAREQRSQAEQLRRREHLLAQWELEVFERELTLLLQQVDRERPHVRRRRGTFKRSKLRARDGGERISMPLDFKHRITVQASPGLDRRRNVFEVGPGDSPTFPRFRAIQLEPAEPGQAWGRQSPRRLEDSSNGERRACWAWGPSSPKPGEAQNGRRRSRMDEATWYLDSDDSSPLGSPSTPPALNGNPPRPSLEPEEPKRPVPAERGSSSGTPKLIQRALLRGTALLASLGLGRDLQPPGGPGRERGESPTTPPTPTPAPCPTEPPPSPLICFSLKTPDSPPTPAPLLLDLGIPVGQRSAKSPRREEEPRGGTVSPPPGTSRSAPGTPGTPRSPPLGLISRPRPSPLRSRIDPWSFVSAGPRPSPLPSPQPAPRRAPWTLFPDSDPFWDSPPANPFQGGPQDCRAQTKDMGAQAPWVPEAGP

Row | Compound | IC50
1 | COc1cc(OC)c(-c2cnc3[nH]c(=O)n(C4CCCC4)c3n2)c(OC)c1 [Example 94, 1-cyclopentyl-6-(2,4,6-trimethoxyphenyl)-1H-imidazo[4,5-b]pyrazin-2(3H)-one] | > 1000 nM
2 | Cc1cc(C)cc(-c2cnc3[nH]c(=O)n(-c4ccc5cn[nH]c5c4)c3n2)c1 [Example 95, 6-(3,5-dimethylphenyl)-1-(1H-indazol-6-yl)-1H-imidazo[4,5-b]pyrazin-2(3H)-one] | > 1000 nM
3 | O=c1[nH]c2ncc(-c3ccncc3)nc2n1-c1ccc2scnc2c1 [Example 98, 1-(benzo[d]thiazol-5-yl)-6-(pyridin-4-yl)-1H-imidazo[4,5-b]pyrazin-2(3H)-one] | > 1000 nM
4 | Cc1cc(C)cc(-c2cnc3[nH]c(=O)n(-c4ccc5scnc5c4)c3n2)c1 [Example 99, 1-(benzo[d]thiazol-5-yl)-6-(3,5-dimethylphenyl)-1H-imidazo[4,5-b]pyrazin-2(3H)-one] | > 1000 nM
5 | O=c1[nH]c2ncc(-c3ccc(N4CCOCC4)cc3)nc2n1-c1ccc2scnc2c1 [Example 100, 1-(benzo[d]thiazol-5-yl)-6-(4-morpholinophenyl)-1H-imidazo[4,5-b]pyrazin-2(3H)-one] | > 1000 nM
6 | COc1cc(-c2cnc3[nH]c(=O)n(C4CCc5ccccc54)c3n2)cc(OC)c1OC (stereo not drawn) [Example 101, 1-(2,3-dihydro-1H-inden-1-yl)-6-(3,4,5-trimethoxyphenyl)-1H-imidazo[4,5-b]pyrazin-2(3H)-one] | > 1000 nM
7 | COc1cc(-c2cnc3[nH]c(=O)n(-c4ccc5[nH]cnc5c4)c3n2)cc(OC)c1OC [Example 102, 1-(1H-benzo[d]imidazol-5-yl)-6-(3,4,5-trimethoxyphenyl)-1H-imidazo[4,5-b]pyrazin-2(3H)-one] | < 100 nM
8 | COc1cc(-c2cnc3[nH]c(=O)n(-c4ccc(N5CCOCC5)nc4)c3n2)cc(OC)c1OC [Example 109, 1-(6-morpholinopyridin-3-yl)-6-(3,4,5-trimethoxyphenyl)-1H-imidazo[4,5-b]pyrazin-2(3H)-one] | > 1000 nM
9 | COc1cc(-c2cnc3[nH]c(=O)n(C4Cc5ccccc5C4)c3n2)cc(OC)c1OC [Example 110, 1-(2,3-dihydro-1H-inden-2-yl)-6-(3,4,5-trimethoxyphenyl)-1H-imidazo[4,5-b]pyrazin-2(3H)-one] | < 100 nM
10 | COc1cc(-c2cnc3[nH]c(=O)n(-c4cnc5[nH]ccc5c4)c3n2)cc(OC)c1OC [Example 112, 1-(1H-pyrrolo[2,3-b]pyridin-5-yl)-6-(3,4,5-trimethoxyphenyl)-1H-imidazo[4,5-b]pyrazin-2(3H)-one] | < 100 nM
11 | COc1cc(-c2cnc3[nH]c(=O)n(-c4ccc5cc[nH]c5c4)c3n2)cc(OC)c1OC [Example 113, 1-(1H-indol-6-yl)-6-(3,4,5-trimethoxyphenyl)-1H-imidazo[4,5-b]pyrazin-2(3H)-one] | < 100 nM
12 | Nc1ccc(-c2cnc3[nH]c(=O)n(C4CCCC4)c3n2)cn1 [Example 117, 6-(6-aminopyridin-3-yl)-1-cyclopentyl-1H-imidazo[4,5-b]pyrazin-2(3H)-one] | > 1000 nM
13 | COc1cc(-c2nc3c(nc2Cl)[nH]c(=O)n3CC2CC2)cc(OC)c1OC [Example 119, 5-chloro-1-(cyclopropylmethyl)-6-(3,4,5-trimethoxyphenyl)-1H-imidazo[4,5-b]pyrazin-2(3H)-one] | > 1000 nM
14 | COc1cc(-c2cnc3c(c2)C(CC2CC2)C(=O)N3)cc(OC)c1OC (stereo not drawn) [Example 123, 3-(cyclopropylmethyl)-5-(3,4,5-trimethoxyphenyl)-1H-pyrrolo[2,3-b]pyridin-2(3H)-one] | 100 to 1000 nM
15 | COc1cc(-c2cnc3[nH]c(=O)n(CC4CC4)c3c2)cc(OC)c1OC [Example 125, 1-(cyclopropylmethyl)-6-(3,4,5-trimethoxyphenyl)-1H-imidazo[4,5-b]pyridin-2(3H)-one] | > 1000 nM
16 | COc1cc(-c2cnc3ncn(-c4ccc5[nH]ccc5c4)c3n2)cc(OC)c1OC [Example 126, 1-(1H-indol-5-yl)-6-(3,4,5-trimethoxyphenyl)-1H-imidazo[4,5-b]pyrazine] | > 1000 nM
17 | COc1cc(-c2cnc3[nH]c(=S)n(CC4CC4)c3n2)cc(OC)c1OC [Example 127, 1-(cyclopropylmethyl)-6-(3,4,5-trimethoxyphenyl)-1H-imidazo[4,5-b]pyrazine-2(3H)-thione] | > 1000 nM
18 | COc1cc(-c2cnc3c(c2)/C(=C\c2ccncc2)C(=O)N3)cc(OC)c1OC [Example 129, (E)- and (Z)-3-pyridin-4-ylmethylene-5-(3,4,5-trimethoxy-phenyl)-1,3-dihydro-pyrrolo[2,3-b]pyridin-2-one] | > 1000 nM
19 | COc1cc(-c2cnc3c(c2)C(=Cc2ccccc2)C(=O)N3)cc(OC)c1OC [Example 130, 3-benzylidene-5-(3,4,5-trimethoxy-phenyl)-1,3-dihydro-pyrrolo[2,3-b]pyridin-2-one] | > 1000 nM
20 | COc1cc(-c2cnc3c(c2)C(=Cc2cccc(C(N)=O)c2)C(=O)N3)cc(OC)c1OC [Example 132, 3-[2-oxo-5-(3,4,5-trimethoxy-phenyl)-1,2-dihydro-pyrrolo[2,3-b]pyridin-3-ylidenemethyl]-benzamide] | > 1000 nM
21 | COc1cc(-c2cnc3c(c2)C(=Cc2ccc(C#N)cc2)C(=O)N3)cc(OC)c1OC [Example 133, 4-[2-oxo-5-(3,4,5-trimethoxy-phenyl)-1,2-dihydro-pyrrolo[2,3-b]pyridin-3-ylidenemethyl]-benzonitrile] | > 1000 nM
22 | COc1cc(-c2cnc3c(c2)C(=Cc2cccc(C#N)c2)C(=O)N3)cc(OC)c1OC [Example 134, 3-[2-oxo-5-(3,4,5-trimethoxy-phenyl)-1,2-dihydro-pyrrolo[2,3-b]pyridin-3-ylidenemethyl]-benzonitrile] | > 1000 nM
23 | COc1cc(-c2cnc3c(c2)C(Cc2cccnc2)C(=O)N3)cc(OC)c1OC (stereo not drawn) [Example 135, 3-pyridin-3-ylmethyl-5-(3,4,5-trimethoxy-phenyl)-1,3-dihydro-pyrrolo[2,3-b]pyridin-2-one] | > 1000 nM
24 | COc1cc(-c2cnc3c(c2)C(Cc2ccccc2)C(=O)N3)cc(OC)c1OC (stereo not drawn) [Example 137, 3-benzyl-5-(3,4,5-trimethoxy-phenyl)-1,3-dihydro-pyrrolo[2,3-b]pyridin-2-one] | > 1000 nM

Same assay, conditions: read-out: MK3 IC50

Row | Compound | IC50
25 | O=c1[nH]c2ncc(-c3ccncc3)nc2n1-c1ccc2cn[nH]c2c1 [Example 93, 1-(1H-indazol-6-yl)-6-(pyridin-4-yl)-1H-imidazo[4,5-b]pyrazin-2(3H)-one] | 100 to 1000 nM
26 | COc1cc(-c2cnc3[nH]c(=O)n(-c4ccc5scnc5c4)c3n2)cc(OC)c1OC [Example 96, 1-(benzo[d]thiazol-5-yl)-6-(3,4,5-trimethoxyphenyl)-1H-imidazo[4,5-b]pyrazin-2(3H)-one] | 100 to 1000 nM
27 | O=c1[nH]c2ncc(-c3ccc(O)cc3)nc2n1-c1ccc2scnc2c1 [Example 97, 1-(benzo[d]thiazol-5-yl)-6-(4-hydroxyphenyl)-1H-imidazo[4,5-b]pyrazin-2(3H)-one] | 100 to 1000 nM
28 | COc1ccc(-c2cnc3[nH]c(=O)n(-c4ccc5[nH]cnc5c4)c3n2)cc1OC [Example 103, 1-(1H-benzo[d]imidazol-5-yl)-6-(3,4-dimethoxyphenyl)-1H-imidazo[4,5-b]pyrazin-2(3H)-one] | 100 to 1000 nM
29 | O=c1[nH]c2ncc(-c3ccc(N4CCOCC4)cc3)nc2n1-c1ccc2[nH]cnc2c1 [Example 104, 1-(1H-benzo[d]imidazol-5-yl)-6-(4-morpholinophenyl)-1H-imidazo[4,5-b]pyrazin-2(3H)-one] | 100 to 1000 nM
30 | COc1cc(-c2cnc3[nH]c(=O)n(-c4ccccc4)c3n2)cc(OC)c1OC [Example 105, 1-phenyl-6-(3,4,5-trimethoxyphenyl)-1H-imidazo[4,5-b]pyrazin-2(3H)-one] | 100 to 1000 nM
31 | COc1ccc(-c2cnc3[nH]c(=O)n(-c4ccccc4)c3n2)cc1OC [Example 106, 6-(3,4-dimethoxyphenyl)-1-phenyl-1H-imidazo[4,5-b]pyrazin-2(3H)-one] | 100 to 1000 nM
32 | COc1cc(-c2cnc3[nH]c(=O)n(CC4CC4)c3n2)ccc1OCCN1CCOCC1 [Example 107, 1-(cyclopropylmethyl)-6-(3-methoxy-4-(2-morpholinoethoxy)phenyl)-1H-imidazo[4,5-b]pyrazin-2(3H)-one] | 100 to 1000 nM
33 | COc1cc(-c2cnc3[nH]c(=O)n(C4CCCC4)c3n2)ccc1OCCN1CCOCC1 [Example 108, 1-cyclopentyl-6-(3-methoxy-4-(2-morpholinoethoxy)phenyl)-1H-imidazo[4,5-b]pyrazin-2(3H)-one] | 100 to 1000 nM
34 | COc1ccc(-c2cnc3[nH]c(=O)n(-c4cnc5[nH]ccc5c4)c3n2)cc1OC [Example 111, 6-(3,4-dimethoxyphenyl)-1-(1H-pyrrolo[2,3-b]pyridin-5-yl)-1H-imidazo[4,5-b]pyrazin-2(3H)-one] | 100 to 1000 nM
35 | COc1cc(-c2cnc3[nH]c(=O)n(-c4ccc(O)cc4)c3n2)cc(OC)c1OC [Example 114, 1-(4-hydroxyphenyl)-6-(3,4,5-trimethoxyphenyl)-1H-imidazo[4,5-b]pyrazin-2(3H)-one] | 100 to 1000 nM
36 | COc1ccc(-c2cnc3[nH]c(=O)n(-c4ccc(O)cc4)c3n2)cc1OC [Example 115, 6-(3,4-dimethoxyphenyl)-1-(4-hydroxyphenyl)-1H-imidazo[4,5-b]pyrazin-2(3H)-one] | 100 to 1000 nM
37 | O=c1[nH]c2ncc(-c3ccc(N4CCOCC4)cc3)nc2n1-c1ccc(O)cc1 [Example 116, 1-(4-hydroxyphenyl)-6-(4-morpholinophenyl)-1H-imidazo[4,5-b]pyrazin-2(3H)-one] | 100 to 1000 nM
38 | COc1cc(-c2cnc3c(c2)C(C)(C)C(=O)N3)cc(OC)c1OC [Example 120, 3,3-dimethyl-5-(3,4,5-trimethoxyphenyl)-1H-pyrrolo[2,3-b]pyridin-2(3H)-one] | 100 to 1000 nM
39 | COc1cc(-c2cnc3c(c2)C2(CCCC2)C(=O)N3)cc(OC)c1OC [Example 121, 5′-(3,4,5-trimethoxyphenyl)spiro[cyclopentane-1,3′-pyrrolo[2,3-b]pyridin]-2′(1′H)-one] | 100 to 1000 nM
